The numbers were not newly measured in patent US12557779B2 (priority 2020, dated 2026), which cites them from elsewhere.

In the series the target is cannabinoid receptor type 2 (CB2) (Homo sapiens, UniProt P34972).
cannabinoid receptor type 2 (CB2), sequence (P34972 whole entry, species assumed): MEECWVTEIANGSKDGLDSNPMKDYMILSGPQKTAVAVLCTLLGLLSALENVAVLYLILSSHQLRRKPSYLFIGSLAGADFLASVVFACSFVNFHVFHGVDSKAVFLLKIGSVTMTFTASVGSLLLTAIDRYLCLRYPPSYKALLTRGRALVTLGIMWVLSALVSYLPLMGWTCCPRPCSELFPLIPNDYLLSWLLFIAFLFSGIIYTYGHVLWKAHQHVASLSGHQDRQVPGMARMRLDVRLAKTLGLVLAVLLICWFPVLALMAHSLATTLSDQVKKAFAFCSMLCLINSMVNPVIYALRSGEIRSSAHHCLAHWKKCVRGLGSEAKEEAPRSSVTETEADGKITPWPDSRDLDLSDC

For the compound `C=C(C)[C@@H]1CCC(C)=C[C@H]1c1c(O)cc(CCCCC)cc1O` [CBD, cannabidiol], the “affinity for CB2” value is reported as “minimal affinity”.
